{"source": "ChEMBL document CHEMBL4613311", "about": "“Synthesis of Novel G Factor or Chloroquine-Artemisinin Hybrids and Conjugates with Potent Antiplasmodial Activity” (ACS Med Chem Lett, 2020)", "key": {"Plasmodium falciparum [1]": {"system": "Plasmodium falciparum", "assay": "Antiplasmodial activity against chloroquine resistant Plasmodium falciparum FcB1/Columbia infected in human erythrocytes preincubated for 24 hrs followed by [3H]-hypoxanthine addition and measured after 24 hrs by liquid scintillation analysis", "type": "functional, organism-based"}, "[2]": {"assay": "Selectivity index, ratio of IC50 for human AB943 cells to IC50 for antiplasmodial activity against chloroquine resistant Plasmodium falciparum FcB1/Colombia infected in human erythrocytes", "type": "toxicity, cell-based", "conditions": "read-out: Ratio IC50"}, "Plasmodium falciparum [3]": {"system": "Plasmodium falciparum", "assay": "Antiplasmodial activity against chloroquine resistant Plasmodium falciparum FcB1/Columbia infected in human erythrocytes at 10 nM preincubated for 24 hrs followed by [3H]-hypoxanthine addition and measured after 24 hrs by liquid scintillation analysis relative to control", "type": "functional"}}}
{"smiles": "COC12OOC3(C=C1C(=O)C(C)(C)C(=O)C2(C)C)CCN(C(=O)CCC(=O)NCCCCN(CCCNC(=O)CCC(=O)N1CCC2(C=C4C(=O)C(C)(C)C(=O)C(C)(C)C4(OC)OO2)CC1)C(=O)CCC(=O)NCCNc1ccnc2cc(Cl)ccc12)CC3", "note": "(stereo not drawn)", "values": [{"measurement": "IC50", "setting": "Plasmodium falciparum [1]", "value": "> 0.167", "unit": "µM"}]}
{"smiles": "COC12OOC3(C=C1C(=O)C(C)(C)C(=O)C2(C)C)CCN(C(=O)CCC(=O)N(CCCCNC(=O)CC[C@H]1O[C@@H]2O[C@@]4(C)CC[C@H]5[C@H](C)CC[C@@H]([C@H]1C)[C@@]25OO4)CCCCNC(=O)CC[C@H]1O[C@@H]2O[C@@]4(C)CC[C@H]5[C@H](C)CC[C@@H]([C@H]1C)[C@@]25OO4)CC3", "note": "(stereo partly drawn)", "values": [{"measurement": "IC50", "setting": "Plasmodium falciparum [1]", "value": 0.0106, "unit": "µM"}, {"measurement": "selectivity ratio", "setting": "[2]", "value": 983}]}
{"smiles": "COC12OOC3(C=C1C(=O)C(C)(C)C(=O)C2(C)C)CCNCC3", "note": "(stereo not drawn)", "values": [{"measurement": "IC50", "setting": "Plasmodium falciparum [1]", "value": "> 0.25", "unit": "µM"}]}
{"smiles": "C[C@H]1[C@@H](CCC(=O)NCCNc2ccnc3cc(Cl)ccc23)O[C@@H]2O[C@@]3(C)CC[C@H]4[C@H](C)CC[C@@H]1[C@@]24OO3", "values": [{"measurement": "inhibition at 0.01 µM", "setting": "Plasmodium falciparum [3]", "value": 11, "unit": "%"}]}
{"smiles": "COC12OOC3(C=C1C(=O)C(C)(C)C(=O)C2(C)C)CCN(C(=O)CCC(=O)N(CCCCNC(=O)CC[C@H]1O[C@@H]2O[C@@]4(C)CC[C@H]5[C@H](C)CC[C@@H]([C@H]1C)[C@@]25OO4)CCCNC(=O)CC[C@H]1O[C@@H]2O[C@@]4(C)CC[C@H]5[C@H](C)CC[C@@H]([C@H]1C)[C@@]25OO4)CC3", "note": "(stereo partly drawn)", "values": [{"measurement": "IC50", "setting": "Plasmodium falciparum [1]", "value": 0.0084, "unit": "µM"}, {"measurement": "selectivity ratio", "setting": "[2]", "value": 2110}]}
{"smiles": "C[C@H]1[C@@H](CCC(=O)NCCCCN(CCCCNC(=O)CC[C@H]2O[C@@H]3O[C@@]4(C)CC[C@H]5[C@H](C)CC[C@@H]([C@H]2C)[C@@]35OO4)C(=O)CCC(=O)NCCNc2ccnc3cc(Cl)ccc23)O[C@@H]2O[C@@]3(C)CC[C@H]4[C@H](C)CC[C@@H]1[C@@]24OO3", "values": [{"measurement": "IC50", "setting": "Plasmodium falciparum [1]", "value": 0.0523, "unit": "µM"}, {"measurement": "selectivity ratio", "setting": "[2]", "value": 328}]}
{"smiles": "C[C@H]1[C@@H](CCC(=O)NCCCCN(CCCNC(=O)CC[C@H]2O[C@@H]3O[C@@]4(C)CC[C@H]5[C@H](C)CC[C@@H]([C@H]2C)[C@@]35OO4)C(=O)CCC(=O)NCCNc2ccnc3cc(Cl)ccc23)O[C@@H]2O[C@@]3(C)CC[C@H]4[C@H](C)CC[C@@H]1[C@@]24OO3", "values": [{"measurement": "inhibition at 0.01 µM", "setting": "Plasmodium falciparum [3]", "value": 33, "unit": "%"}]}
{"smiles": "COC12OOC3(C=C1C(=O)C(C)(C)C(=O)C2(C)C)CCN(C(=O)CCC(=O)NCC[C@H]1O[C@@H]2O[C@@]4(C)CC[C@H]5[C@H](C)CC[C@@H]([C@H]1C)[C@@]25OO4)CC3", "note": "(stereo partly drawn)", "values": [{"measurement": "IC50", "setting": "Plasmodium falciparum [1]", "value": 0.124, "unit": "µM"}, {"measurement": "selectivity ratio", "setting": "[2]", "value": 144}]}
{"smiles": "C[C@H]1[C@@H](CCC(=O)N2CCN(c3ccnc4cc(Cl)ccc34)CC2)O[C@@H]2O[C@@]3(C)CC[C@H]4[C@H](C)CC[C@@H]1[C@@]24OO3", "values": [{"measurement": "inhibition at 0.01 µM", "setting": "Plasmodium falciparum [3]", "value": 11, "unit": "%"}]}
{"smiles": "COC12OOC3(C=C1C(=O)C(C)(C)C(=O)C2(C)C)CCN(C(=O)CC[C@H]1O[C@@H]2O[C@@]4(C)CC[C@H]5[C@H](C)CC[C@@H]([C@H]1C)[C@@]25OO4)CC3", "note": "(stereo partly drawn)", "values": [{"measurement": "IC50", "setting": "Plasmodium falciparum [1]", "value": 0.0026, "unit": "µM"}, {"measurement": "selectivity ratio", "setting": "[2]", "value": 16400}]}
{"smiles": "COC12OOC3(C=C1C(=O)C(C)(C)C(=O)C2(C)C)CCN(C(=O)CCC(=O)NCCCCN(CCCCNC(=O)CCC(=O)N1CCC2(C=C4C(=O)C(C)(C)C(=O)C(C)(C)C4(OC)OO2)CC1)C(=O)CCC(=O)NCCNc1ccnc2cc(Cl)ccc12)CC3", "note": "(stereo not drawn)", "values": [{"measurement": "IC50", "setting": "Plasmodium falciparum [1]", "value": "> 0.167", "unit": "µM"}]}
{"smiles": "C[C@@H]1CC[C@H]2[C@@H](C)C(=O)O[C@@H]3O[C@@]4(C)CC[C@@H]1[C@]32OO4", "note": "[ARTEMISININ]", "values": [{"measurement": "IC50", "setting": "Plasmodium falciparum [1]", "value": 0.055, "unit": "µM"}, {"measurement": "selectivity ratio", "setting": "[2]", "value": "> 4540"}]}
